From ChEMBL document CHEMBL3392983, “Synthesis, antimicrobial activity and molecular docking of novel tetracyclic scaffolds incorporating a flavonoid framework with medium sized oxygen heterocycles” (2015)
Values after ≈ are worked out from the molar mass of the structure shown.

Legend:
Type in all cases: functional
[1] = test system: Pseudomonas aeruginosa; assay: Antimicrobial activity against Pseudomonas aeruginosa ATCC 10145 assessed as inhibition of microbial growth incubated for 24 hrs by broth dilution method
[2] = test system: Bacillus subtilis; assay: Bactericidal activity against Bacillus subtilis ATCC 6633 assessed as microbial killing during 18 hrs post sub-culture onto drug-free solid media by broth dilution method; conditions: ATCC 6633, 18 h, read-out: MBC99.9
[3] = test system: Pseudomonas aeruginosa; assay: Bactericidal activity against Pseudomonas aeruginosa ATCC 10145 assessed as microbial killing during 18 hrs post sub-culture onto drug-free solid media by broth dilution method; conditions: ATCC 10145, 18 h, read-out: MBC99.9
[4] = test system: Staphylococcus aureus; assay: Antimicrobial activity against Staphylococcus aureus ATCC 25923 assessed as inhibition of microbial growth incubated for 24 hrs by broth dilution method
[5] = test system: Bacillus subtilis; assay: Antimicrobial activity against Bacillus subtilis ATCC 6633 assessed as inhibition of microbial growth incubated for 24 hrs by broth dilution method
[6] = test system: Candida albicans; assay: Antimicrobial activity against Candida albicans ATCC 10231 assessed as inhibition of microbial growth incubated for 72 hrs by broth dilution method; conditions: ATCC 10231, 72 h
[7] = test system: Escherichia coli; assay: Antimicrobial activity against Escherichia coli ATCC 10536 assessed as inhibition of microbial growth incubated for 24 hrs by broth dilution method
[8] = test system: Staphylococcus aureus; assay: Bactericidal activity against Staphylococcus aureus ATCC 25923 assessed as microbial killing during 18 hrs post sub-culture onto drug-free solid media by broth dilution method; conditions: ATCC 25923, 18 h, read-out: MBC99.9
[9] = test system: Escherichia coli; assay: Bactericidal activity against Escherichia coli ATCC 10536 assessed as microbial killing during 18 hrs post sub-culture onto drug-free solid media by broth dilution method; conditions: ATCC 10536, 18 h, read-out: MBC99.9
[10] = test system: Candida tropicalis; assay: Antimicrobial activity against Candida tropicalis ATCC 750 assessed as inhibition of microbial growth incubated for 72 hrs by broth dilution method; conditions: ATCC 750, 72 h
[11] = test system: Klebsiella pneumoniae; assay: Antimicrobial activity against Klebsiella pneumoniae ATCC 10031 assessed as inhibition of microbial growth incubated for 24 hrs by broth dilution method

| Compound | MIC ([1]; ATCC 10145, 24 h) | MBC [2] | MBC [3] | MIC ([4]; ATCC 25923, 24 h) | MIC ([5]; ATCC 6633, 24 h) | MIC [6] | MIC ([7]; ATCC 10536, 24 h) | MBC [8] | MBC [9] | MIC [10] | MIC ([11]; ATCC 10031, 24 h) | MIC [1] | MIC [4] | MIC [5] | MIC [7] | MIC [11] |
| --- | --- | --- | --- | --- | --- | --- | --- | --- | --- | --- | --- | --- | --- | --- | --- | --- |
| O=c1c2c(oc3ccccc13)-c1ccccc1OCCCO2 | 0.136 µM | 0.034 µM (≈ 0.01 µg/mL) | 0.084 µM (≈ 0.0247 µg/mL) | 0.272 µM | 0.085 µM | > 0.68 µM | 0.051 µM | 0.136 µM (≈ 0.04 µg/mL) | 0.052 µM (≈ 0.0153 µg/mL) | > 0.68 µM | 0.102 µM | – | – | – | – | – |
| O=c1c2c(oc3ccc(Br)cc13)-c1ccccc1OCCO2 | 0.097 µM | 0.023 µM (≈ 0.00826 µg/mL) | 0.061 µM (≈ 0.0219 µg/mL) | 0.027 µM | 0.027 µM | > 0.558 µM | 0.097 µM | 0.023 µM (≈ 0.00826 µg/mL) | 0.061 µM (≈ 0.0219 µg/mL) | > 0.558 µM | 0.083 µM | – | – | – | – | – |
| O=c1c2c(oc3ccc(Cl)cc13)-c1ccccc1OCCO2 | 0.063 µM | 0.035 µM (≈ 0.011 µg/mL) | 0.063 µM (≈ 0.0198 µg/mL) | 0.033 µM | 0.065 µM | > 0.636 µM | 0.047 µM | 0.033 µM (≈ 0.0104 µg/mL) | 0.027 µM (≈ 0.0085 µg/mL) | > 0.636 µM | 0.047 µM | – | – | – | – | – |
| O=c1c(O)c(-c2ccccc2O)oc2ccc(Cl)cc12 | 0.157 µM | – | – | 0.19 µM | 0.173 µM | > 0.694 µM | 0.14 µM | – | – | > 0.694 µM | 0.138 µM | – | – | – | – | – |
| O=c1c2c(oc3ccc(F)cc13)-c1ccccc1OCCCO2 | 0.064 µM | 0.032 µM (≈ 0.00999 µg/mL) | 0.032 µM (≈ 0.00999 µg/mL) | 0.129 µM | 0.081 µM | > 0.641 µM | 0.16 µM | 0.116 µM (≈ 0.0362 µg/mL) | 0.096 µM (≈ 0.03 µg/mL) | > 0.641 µM | 0.112 µM | – | – | – | – | – |
| O=c1c2c(oc3ccc(F)cc13)-c1ccccc1OCCCCCO2 | 0.073 µM | 0.039 µM (≈ 0.0133 µg/mL) | 0.035 µM (≈ 0.0119 µg/mL) | 0.132 µM | 0.117 µM | > 0.588 µM | 0.102 µM | 0.11 µM (≈ 0.0374 µg/mL) | 0.074 µM (≈ 0.0252 µg/mL) | > 0.588 µM | 0.088 µM | – | – | – | – | – |
| O=c1c2c(oc3ccc(Cl)cc13)-c1ccccc1OCCCCO2 | 0.146 µM | 0.024 µM (≈ 0.00823 µg/mL) | 0.058 µM (≈ 0.0199 µg/mL) | 0.204 µM | 0.073 µM | > 0.584 µM | 0.029 µM | 0.154 µM (≈ 0.0528 µg/mL) | 0.028 µM (≈ 0.0096 µg/mL) | > 0.584 µM | 0.146 µM | – | – | – | – | – |
| O=c1c2c(oc3ccc(F)cc13)-c1ccccc1OCCO2 | 0.1 µM | 0.073 µM (≈ 0.0218 µg/mL) | 0.033 µM (≈ 0.00984 µg/mL) | 0.134 µM | 0.117 µM | > 0.671 µM | 0.167 µM | 0.093 µM (≈ 0.0277 µg/mL) | 0.096 µM (≈ 0.0286 µg/mL) | > 0.671 µM | 0.117 µM | – | – | – | – | – |
| O=c1c2c(oc3ccc(F)cc13)-c1ccccc1OCCCCO2 | 0.076 µM | 0.04 µM (≈ 0.0131 µg/mL) | 0.03 µM (≈ 0.00979 µg/mL) | 0.153 µM | 0.092 µM | > 0.613 µM | 0.062 µM | 0.081 µM (≈ 0.0264 µg/mL) | 0.055 µM (≈ 0.0179 µg/mL) | > 0.613 µM | 0.046 µM | – | – | – | – | – |
| O=c1c2c(oc3ccccc13)-c1ccccc1OCCCCCO2 | 0.062 µM | 0.159 µM (≈ 0.0513 µg/mL) | 0.089 µM (≈ 0.0287 µg/mL) | 0.155 µM | 0.186 µM | > 0.621 µM | 0.063 µM | 0.154 µM (≈ 0.0496 µg/mL) | 0.059 µM (≈ 0.019 µg/mL) | > 0.621 µM | 0.077 µM | – | – | – | – | – |
| O=c1c2c(oc3ccccc13)-c1ccccc1OCCCCO2 | 0.113 µM | 0.064 µM (≈ 0.0197 µg/mL) | 0.082 µM (≈ 0.0253 µg/mL) | 0.097 µM | 0.064 µM | > 0.649 µM | 0.146 µM | 0.059 µM (≈ 0.0182 µg/mL) | 0.072 µM (≈ 0.0222 µg/mL) | > 0.649 µM | 0.064 µM | – | – | – | – | – |
| O=c1c2c(oc3ccc(Br)cc13)-c1ccccc1OCCCO2 | 0.04 µM | 0.025 µM (≈ 0.00933 µg/mL) | 0.037 µM (≈ 0.0138 µg/mL) | 0.053 µM | 0.04 µM | > 0.537 µM | 0.032 µM | 0.025 µM (≈ 0.00933 µg/mL) | 0.027 µM (≈ 0.0101 µg/mL) | > 0.537 µM | 0.026 µM | – | – | – | – | – |
| O=c1c2c(oc3ccccc13)-c1ccccc1OCCO2 | 0.125 µM | 0.071 µM (≈ 0.0199 µg/mL) | 0.071 µM (≈ 0.0199 µg/mL) | 0.142 µM | 0.071 µM | > 0.714 µM | 0.108 µM | 0.142 µM (≈ 0.0398 µg/mL) | 0.085 µM (≈ 0.0238 µg/mL) | > 0.714 µM | 0.107 µM | – | – | – | – | – |
| O=c1c(O)c(-c2ccccc2O)oc2ccc(F)cc12 | 0.275 µM | – | – | 0.259 µM | 0.167 µM | > 0.735 µM | 0.22 µM | – | – | > 0.735 µM | 0.202 µM | – | – | – | – | – |
| O=c1c(O)c(-c2ccccc2O)oc2ccccc12 | 0.157 µM | – | – | 0.198 µM | 0.218 µM | > 0.787 µM | 0.177 µM | – | – | > 0.787 µM | 0.177 µM | – | – | – | – | – |
| O=c1c2c(oc3ccc(Br)cc13)-c1ccccc1OCCCCCO2 | 0.062 µM | 0.035 µM (≈ 0.014 µg/mL) | 0.05 µM (≈ 0.0201 µg/mL) | 0.051 µM | 0.063 µM | > 0.5 µM | 0.025 µM | 0.04 µM (≈ 0.0161 µg/mL) | 0.02 µM (≈ 0.00803 µg/mL) | > 0.5 µM | 0.037 µM | – | – | – | – | – |
| OC(Cn1cncn1)(Cn1cncn1)c1ccc(F)cc1F [FLUCONAZOLE] | – | – | – | – | – | ≤ 0.033 µM | – | – | – | ≤ 0.033 µM | – | – | – | – | – | – |
| GENTAMICIN SULFATE | – | – | – | – | – | – | – | – | – | – | – | < 0.017 µM | < 0.017 µM | < 0.017 µM | < 0.017 µM | < 0.017 µM |
| O=c1c(O)c(-c2ccccc2O)oc2ccc(Br)cc12 | 0.12 µM | – | – | 0.152 µM | 0.167 µM | > 0.602 µM | 0.135 µM | – | – | > 0.602 µM | 0.135 µM | – | – | – | – | – |
| O=c1c2c(oc3ccc(Cl)cc13)-c1ccccc1OCCCCCO2 | 0.07 µM | 0.014 µM (≈ 0.005 µg/mL) | 0.028 µM (≈ 0.00999 µg/mL) | 0.14 µM | 0.028 µM | > 0.561 µM | 0.057 µM | 0.088 µM (≈ 0.0314 µg/mL) | 0.034 µM (≈ 0.0121 µg/mL) | > 0.561 µM | 0.028 µM | – | – | – | – | – |
| O=c1c2c(oc3ccc(Cl)cc13)-c1ccccc1OCCCO2 | 0.06 µM | 0.075 µM (≈ 0.0247 µg/mL) | 0.03 µM (≈ 0.00986 µg/mL) | 0.092 µM | 0.077 µM | > 0.609 µM | 0.045 µM | 0.051 µM (≈ 0.0168 µg/mL) | 0.03 µM (≈ 0.00986 µg/mL) | > 0.609 µM | 0.106 µM | – | – | – | – | – |
| O=c1c2c(oc3ccc(Br)cc13)-c1ccccc1OCCCCO2 | 0.051 µM | 0.053 µM (≈ 0.0205 µg/mL) | 0.024 µM (≈ 0.00929 µg/mL) | 0.079 µM | 0.066 µM | > 0.518 µM | 0.038 µM | 0.024 µM (≈ 0.00929 µg/mL) | 0.027 µM (≈ 0.0105 µg/mL) | > 0.518 µM | 0.09 µM | – | – | – | – | – |
